Assay results reported in patent publication US20100041892A1, “Therapeutic agent for diabetes” (priority 2005, published 2010).
Like-named read-outs stand apart in the source and are kept apart here.

How the values were obtained:
[1] = target: T1, PPARγ-RXRα heterodimer (Homo sapiens, UniProt P37231); test: PPARγ-RXRα heterodimer ligand activity (luciferase reporter, PPARγ:RXRα:4ERPP/CHO-K1 cells); assay type: cell-based; conditions: concentration showing 50% of the maximum luciferase induction rate; CHO-K1 reporter cells, one day incubation
T1 construct: expressed in transfected cells; host or cells: CHO-K1 (PPARγ:RXRα:4ERPP/CHO-K1)
T1 sequence (P37231 1-477 isoform P37231-2): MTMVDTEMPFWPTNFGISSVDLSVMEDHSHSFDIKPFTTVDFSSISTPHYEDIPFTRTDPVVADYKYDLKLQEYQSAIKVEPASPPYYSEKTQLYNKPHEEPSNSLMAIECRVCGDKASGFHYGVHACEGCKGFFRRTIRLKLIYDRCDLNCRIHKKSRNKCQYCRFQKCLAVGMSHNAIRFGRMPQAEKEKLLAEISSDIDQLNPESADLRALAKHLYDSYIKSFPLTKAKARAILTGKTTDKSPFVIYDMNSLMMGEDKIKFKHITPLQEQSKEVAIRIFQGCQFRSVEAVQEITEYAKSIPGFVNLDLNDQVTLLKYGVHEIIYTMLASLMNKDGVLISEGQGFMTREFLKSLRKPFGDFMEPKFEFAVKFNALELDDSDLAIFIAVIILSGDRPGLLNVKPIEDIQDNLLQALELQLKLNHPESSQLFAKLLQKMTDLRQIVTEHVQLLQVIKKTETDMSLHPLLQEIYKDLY
T1 sequence (P19793 1-462 partner): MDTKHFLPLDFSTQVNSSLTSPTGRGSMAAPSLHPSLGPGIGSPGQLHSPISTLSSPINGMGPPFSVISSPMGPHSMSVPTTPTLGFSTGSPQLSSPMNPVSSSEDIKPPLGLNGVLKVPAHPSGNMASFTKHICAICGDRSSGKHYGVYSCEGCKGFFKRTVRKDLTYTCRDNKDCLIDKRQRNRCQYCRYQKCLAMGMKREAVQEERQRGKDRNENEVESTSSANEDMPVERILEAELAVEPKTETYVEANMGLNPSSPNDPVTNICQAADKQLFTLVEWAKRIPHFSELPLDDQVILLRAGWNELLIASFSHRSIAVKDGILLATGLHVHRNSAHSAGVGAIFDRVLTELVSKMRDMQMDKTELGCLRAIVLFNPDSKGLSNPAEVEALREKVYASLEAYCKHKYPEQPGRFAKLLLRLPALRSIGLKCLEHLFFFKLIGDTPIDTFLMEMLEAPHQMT
Method: The PPARγ:RXRα:4ERPP/CHO-K1 cells described in WO03/099793 were cultured in a Ham F12 medium [manufactured by Life Technologies, Inc., US] containing 10% calf fetal serum [manufactured by Life Technologies, Inc., US], sown in a 96-well white plate (manufactured by Corning Coster Corporation, US] at 1×10^4 cells/well, and incubated overnight in a carbon dioxide gas incubator at 37° C.
Then, the medium was removed from the 96 well white plate, 45 μl of Ham F12-medium containing 0.1% fatty acid-free bovine serum albumin (BSA) and a test compound (5 μl) were added, and the cells were incubated for one day in a carbon dioxide gas incubator at 37° C. The medium was removed, 20 μl of PicaGene 7.5 (manufactured by Wako Pure Chemical Industries, Ltd.) 2-fold diluted with HBSS (HANKS' BALANCED SALT SOLUTION) [manufactured by BIO WHITTAKER, US] was added. After stirring, the luciferase activity was determined using the 1420 ARVO Multilabel Counter [manufactured by PerkinElmer, US].
The induction rate was calculated from the luciferase activity of each test compound based on the luciferase activity of the test compound non-administration group as 1. The test compound concentration and the induction rate were analyzed by PRISM [manufactured by GraphPad Software, Inc., US] to calculate EC50 value (compound concentration showing 50% of the maximum value of induction rate) of the test compound.

[2] = system: KKAy mice; test: Blood glucose and blood lipid (triglyceride) lowering action in mice; assay type: in vivo; conditions: Mus musculus, 4TO7, po, 4 to 7 days; for response vs control in vivo at 0.03 %: 0.03% in powder diet; for response vs control in vivo at 0.005 %: 0.005% in powder diet; for response vs control in vivo at 0.01 %: 0.01% in powder diet
Excerpt: The test compound was mixed with a powder diet (CE-2, CLEA JAPAN, INC.) at a proportion of 0.01% (0.03% for the compounds of Examples 1, 2, 12, 81, 94, 96, 129 and 143, and 0.005% for the compounds of Examples 28, 30 and 37) and freely given to KKAy mice (9 to 14-week-old, 5 mice per group) which are obesity non-insulin-dependent diabetes (type-2 diabetes) models, for 4 to 7 days. During this period, water was freely given. The blood was drawn from the orbital venous plexus. Glucose and triglyceride in the plasma separated from the blood were quantitated using L Type Wako Glu2 (Wako Pure Chemical Industries, Ltd.) and L Type Wako TG·H (Wako Pure Chemical Industries, Ltd.), respectively, according to an enzyme method.

[3] = plasma glucose relative to non-administration group = 100%, read-out: hypoglycemic action (%)
[4] = plasma triglyceride relative to non-administration group = 100%, read-out: hypolipidemic action (%)

SMILES	EC50 [1] [nM]	melting point [°C]	response vs control in vivo at 0.03 % [2, 3] [%]	response vs control in vivo at 0.03 % [2, 4] [%]	response vs control in vivo at 0.005 % [2, 3] [%]	response vs control in vivo at 0.005 % [2, 4] [%]	response vs control in vivo at 0.01 % [2, 3] [%]	response vs control in vivo at 0.01 % [2, 4] [%]
CCCCCS(=O)(=O)NC(=O)CCc1ccc(OCCOC)cc1Oc1ncc(C(F)(F)F)cc1Cl [Example 1, 3-[2-{[3-chloro-5-(trifluoromethyl)pyridin-2-yl]oxy}-4-(2-methoxyethoxy)phenyl]-N-(pentylsulfonyl)propanamide]	1.5	–	47	53	–	–	–	–
CCCCCS(=O)(=O)NC(=O)CCc1ccc(OC(C)C)cc1Oc1ncc(C(F)(F)F)cc1Cl [Example 2, 3-(2-{[3-chloro-5-(trifluoromethyl)pyridin-2-yl]oxy}-4-isopropoxyphenyl)-N-(pentylsulfonyl)propanamide]	2.6	–	50	41	–	–	–	–
CCCCCS(=O)(=O)NC(=O)/C=C/c1ccc(OCCOC)cc1Oc1ncc(C(F)(F)F)cc1Cl [Example 12, (2E)-3-[2-{[3-chloro-5-(trifluoromethyl)pyridin-2-yl]oxy}-4-(2-methoxyethoxy)phenyl]-N-(pentylsulfonyl)acrylamide]	15	–	46	43	–	–	–	–
CCCCCS(=O)(=O)NC(=O)OCCCc1ccc(OCCOC)cc1Oc1ncc(C(F)(F)F)cc1Cl [Example 28, 3-[2-{[3-chloro-5-(trifluoromethyl)pyridin-2-yl]oxy}-4-(2-methoxyethoxy)phenyl]propyl (pentylsulfonyl)carbamate]	4.5	–	–	–	52	32	–	–
COCCOc1ccc(CCCOC(=O)NS(=O)(=O)c2ccc(C)cc2)c(Oc2ncc(C(F)(F)F)cc2Cl)c1 [Example 30, 3-[2-{[3-chloro-5-(trifluoromethyl)pyridin-2-yl]oxy}-4-(2-methoxyethoxy)phenyl]propyl [(4-methylphenyl)sulfonyl]carbamate monohydrate]	3.8	–	–	–	47	57	–	–
COCCOc1ccc(/C=C/COC(=O)NS(=O)(=O)c2ccc(Cl)cc2)c(Oc2ncc(C(F)(F)F)cc2Cl)c1 [Example 37, (2E)-3-[2-{[3-chloro-5-(trifluoromethyl)pyridin-2-yl]oxy}-4-(2-methoxyethoxy)phenyl]-2-propen-1-yl [(4-chlorophenyl)sulfonyl]carbamate dihydrate]	21	–	–	–	68	70	–	–
CCCCCS(=O)(=O)NC(=O)OCc1ccc(OCCOC)cc1Oc1ncc(C(F)(F)F)cc1Cl [Example 58, 2-{[3-chloro-5-(trifluoromethyl)pyridin-2-yl]oxy}-4-(2-methoxyethoxy)benzyl (pentylsulfonyl)carbamate]	10	–	–	–	–	–	64	73

Further lines, with some results ahead:

EC50 [1] [nM]	melting point [°C]	SMILES	response vs control in vivo at 0.03 % [2, 3] [%]	response vs control in vivo at 0.03 % [2, 4] [%]	response vs control in vivo at 0.005 % [2, 3] [%]	response vs control in vivo at 0.005 % [2, 4] [%]	response vs control in vivo at 0.01 % [2, 3] [%]	response vs control in vivo at 0.01 % [2, 4] [%]
16	–	CCCCCS(=O)(=O)NC(=O)CCc1cc(OC(C)C)nn1Cc1ccc(Cl)cc1Cl [Example 81, 3-[1-(2,4-dichlorobenzyl)-3-isopropoxy-1H-pyrazol-5-yl]-N-(pentylsulfonyl)propanamide]	44	60	–	–	–	–
20	–	CCCCCS(=O)(=O)NC(=O)/C=C/c1cc(OC(C)C)nn1Cc1ccc(Cl)cc1Cl [Example 94, (2E)-3-[1-(2,4-dichlorobenzyl)-3-isopropoxy-1H-pyrazol-5-yl]-N-(pentylsulfonyl)acrylamide]	48	79	–	–	–	–
8.4	–	CCCCCS(=O)(=O)NC(=O)CCc1cc(C(C)C)nn1Cc1ccc(C(F)(F)F)cc1Cl [Example 96, 3-(1-[2-chloro-4-(trifluoromethyl)benzyl]-3-isopropyl-1H-pyrazol-5-yl)-N-(pentylsulfonyl)propanamide]	53	57	–	–	–	–
8.3	–	CC(C)CCS(=O)(=O)NC(=O)/C=C/c1cc(OC(C)C)nn1Cc1ccc(C(F)(F)F)cc1Cl [Example 112, (2E)-3-{1-[2-chloro-4-(trifluoromethyl)benzyl]-3-isopropoxy-1H-pyrazol-5-yl}-N-[(3-methylbutyl)sulfonyl]acrylamide]	–	–	–	–	53	70
12	–	CCCCCS(=O)(=O)NC(=O)/C=C/c1cc(C2CC2)nn1Cc1ccc(C(F)(F)F)cc1Cl [Example 155, (2E)-3-{1-[2-chloro-4-(trifluoromethyl)benzyl]-3-cyclopropyl-1H-pyrazol-5-yl}-N-(pentylsulfonyl)acrylamide]	–	–	–	–	70	70
0.92	–	COCCOc1ccc(CCCOC(=O)NS(=O)(=O)NCCOC(C)C)c(Oc2ncc(C(F)(F)F)cc2Cl)c1 [Example 204, 3-[2-{[3-chloro-5-(trifluoromethyl)pyridin-2-yl]oxy}-4-(2-methoxyethoxy)phenyl]propyl {[(2-isopropoxyethyl)amino]sulfonyl}carbamate]	–	–	–	–	52	36
2.1	76 to 77.5	CCCCCS(=O)(=O)NC(=O)CCc1ccc(OCCOCCOC)cc1Oc1ncc(C(F)(F)F)cc1Cl [Example 257, 3-{2-{[3-chloro-5-(trifluoromethyl)pyridin-2-yl]oxy}-4-[2-(2-methoxyethoxy)ethoxy]phenyl}-N-(pentylsulfonyl)propanamide]	–	–	–	–	–	–
1.1	115 to 115.2	CCCCCS(=O)(=O)NC(=O)CCc1ccc(OCCCOC)cc1Oc1ncc(C(F)(F)F)cc1Cl [Example 258, 3-[2-{[3-chloro-5-(trifluoromethyl)pyridin-2-yl]oxy}-4-(3-methoxypropoxy)phenyl]-N-(pentylsulfonyl)propanamide]	–	–	–	–	–	–
7.3	90 to 92	CCCCCS(=O)(=O)NC(=O)/C=C/c1ccc(OCCC2(C)OCCO2)cc1Oc1ncc(C(F)(F)F)cc1Cl [Example 453, (2E)-3-{2-{[3-chloro-5-(trifluoromethyl)pyridin-2-yl]oxy}-4-[2-(2-methyl-1,3-dioxolan-2-yl)ethoxy]phenyl}-N-(pentylsulfonyl)acrylamide]	–	–	–	–	–	–
